These results are taken from ChEMBL document CHEMBL5614378, “Novel compounds with dual inhibition activity against SARS-CoV-2 critical enzymes RdRp and human TMPRSS2” (Eur J Med Chem, 2024).

Data set [1] deals with SARS-CoV-2. The format is functional. The settings on record: Severe acute respiratory syndrome coronavirus 2, Calu-3, 96 h; dose 30 nM; time 4 day.
The target in data set [2] is Replicase polyprotein 1ab (Severe acute respiratory syndrome coronavirus 2) (UniProt P0DTD1). The experiment in a line: Inhibition of SARS-CoV-2 recombinant RdRp at 50 ug/ml preincubated with enzyme for 15 mins followed by single stranded polyribonucleotide template and NTPs addition and measured after 2 hrs by fluorescence spectrometric analysis relative to control. The conditions noted are these: dose 50.0 µg/ml, time 135.0 min.

Data set [3] has as its system SARS-CoV-2. The format is functional, Vero E6. The settings on record: Severe acute respiratory syndrome coronavirus 2, Vero C1008, 72 h, time 3 day.
Data set [4] can be described thus: Cytotoxicity against human Calu-3 cells. The format is toxicity, cell-based.
The subject of data set [5] is SARS-CoV-2. The format is functional, Vero E6. The settings on record: for inhibition at 10 µg/mL: Severe acute respiratory syndrome coronavirus 2, Vero C1008, 72 h, time 3 day.
Data set [6] has as its system SARS-CoV-2. The experiment in a line: microbe, parasite or virus in culture. The settings on record: Severe acute respiratory syndrome coronavirus 2, NRC-03-nhCoV, Calu-3, 72 h.
Description: Anti-SARS-CoV-2 activity against SARS-CoV-2 NRC-03-nhCoV infected in human Calu-3 cells expressing TMPRSS2 assessed as inhibition of viral replication incubated for 72 hrs by crystal violet staining based analysis
For data set [7], the system named is SARS-CoV-2. The format is functional. The settings on record: Severe acute respiratory syndrome coronavirus 2, Calu-3, 96 h; dose 15 nM; time 4 day.
In data set [8] the test system is SARS-CoV-2. The format is functional, Vero E6. The settings on record: for inhibition at 10 µg/mL: Severe acute respiratory syndrome coronavirus 2, Vero C1008, 96 h, time 4 day.
Data set [9] relates to SARS-CoV-2. Description: microbe, parasite or virus in culture. The conditions noted are these: Severe acute respiratory syndrome coronavirus 2, NRC-03-nhCoV, Vero C1008, 72 h.
Description: Anti-SARS-CoV-2 activity against SARS-CoV-2 NRC-03-nhCoV infected in African green monkey Vero E6 cells assessed as inhibition of viral replication incubated for 72 hrs by crystal violet staining based analysis
The target in data set [10] is Replicase polyprotein 1ab (Severe acute respiratory syndrome coronavirus 2, UniProt P0DTD1). Description: Inhibition of SARS-CoV-2 recombinant RdRp preincubated with enzyme for 15 mins followed by single stranded polyribonucleotide template and NTPs addition and measured after 2 hrs by fluorescence spectrometric analysis.
A short description of the next data set: in vitro. The settings on record: monkey, Vero E6 cells.

Structures are written as SMILES. Calls of active or inactive are those of the source. The calls are words filed in the database; no cut-off is given here.

Description for in vitro: Selectivity index, ratio of CC50 for cytotoxicity against African green monkey Vero E6 cells to IC50 for anti-SARS-CoV-2 activity against SARS-CoV-2 NRC-03-nhCoV infected in African green monkey Vero E6 cells

A word on the inhibition: it is the share of the control response that was lost under treatment. As usually defined, the CC50 is the concentration that lowers cell viability or growth by half. Low readings indicate harm at low concentration, high ones better tolerance by the cells. Usually IC50 stands for the midpoint of a concentration-inhibition curve. As for `CC(C)c1cc(=O)oc2ccc(OC(=O)c3ccc(NC(=N)N)cc3)cc12`, the inhibition at 0.03 µM with SARS-CoV-2 [1] stood at 60%. In addition, the inhibition in data set [2] is 89%. The inhibition at 10 µg/mL in the data set on SARS-CoV-2 [3] was found to be 63.2%; in the data set on SARS-CoV-2 [5], 90.5%; with SARS-CoV-2 [8], 65%. This compound registered a half-maximal cytotoxic concentration (CC50) in [4] of 450 nM. For the same compound, the IC50 in the data set on SARS-CoV-2 [6] is 17.5 nM; with SARS-CoV-2 [9], 5.7 nM; in data set [10], 4.42 nM. This compound yielded an inhibition at 0.015 µM in the data set with SARS-CoV-2 [7] of 45%.
As for `CN(C)C(=O)COC(=O)Cc1ccc(OC(=O)c2ccc(NC(=N)N)cc2)cc1` [CAMOSTAT], in the data set on SARS-CoV-2 [1], testing at 0.03 µM gave an inhibition of 80%. For the same compound, half-maximal cytotoxicity in data set [4] (CC50) was put at 230 nM. The compound further came in with an IC50 with SARS-CoV-2 [6] of 8.21 nM. Also, the inhibition at 0.015 µM in the data set with SARS-CoV-2 [7] amounted to 70%.
For the compound `CC(C)(C)OC(=O)Nc1ccc(C(=O)Nc2ncnn3c([C@]4(C#N)O[C@H](CO)[C@@H](O)[C@H]4O)ccc23)cc1`, the selectivity ratio in the data set “in vitro” came out at 6.65. The IC50 in the data set with SARS-CoV-2 [9] came to 42.2 nM.
For `N#C[C@@]1(c2ccc3c(NC(=O)c4ccc(Nc5ncccn5)cc4)ncnn23)O[C@H](CO)[C@@H](O)[C@H]1O`, the inhibition in [2] was 77%. This compound yielded an inhibition at 10 µg/mL with SARS-CoV-2 [3] of 51.3%. Besides, the inhibition result was “inactive” in the data set with SARS-CoV-2 [5] (Severe acute respiratory syndrome coronavirus 2, Vero E6, dose 10.0 µg/ml, time 3.0 day) and “inactive” with SARS-CoV-2 [8] (Severe acute respiratory syndrome coronavirus 2, Vero E6, dose 10.0 µg/ml, time 4.0 day). Besides, the selectivity ratio in “in vitro” was found to be 2.64. Further, the IC50 in the data set with SARS-CoV-2 [9] was 19.7 nM; in [10], 32.4 nM.
Regarding `O=C(Nc1ccn(C2OC(CO)C(O)C2O)c(=O)n1)c1ccc(Nc2ncccn2)cc1` (stereo unspecified), in “in vitro”, the selectivity ratio turned out to be 7.18. This compound also came in with a concentration for half-maximal inhibition (IC50) in the data set on SARS-CoV-2 [9] of 52 nM.
In the case of `N#C[C@@]1(c2ccc3c(NC(=O)c4ccc(NC(=N)N)cc4)ncnn23)O[C@H](CO)[C@@H](O)[C@H]1O`, the inhibition in data set [2] worked out at 91.5%. The figures for the inhibition at 10 µg/mL in the data set with SARS-CoV-2 [3], in the data set on SARS-CoV-2 [5] and in the data set with SARS-CoV-2 [8] were 66%, 51.4% and 44%, respectively. In addition, the IC50 in the data set on SARS-CoV-2 [9] was determined as 3.9 nM; in data set [10], 6.1 nM.
As for `CCC(CC)COC(=O)[C@H](C)N[P@](=O)(OC[C@H]1O[C@@](C#N)(c2ccc3c(N)ncnn23)[C@H](O)[C@@H]1O)Oc1ccccc1` [REMDESIVIR], in data set [2], the inhibition stood at 73%. For the same compound, the selectivity ratio in the data set “in vitro” turned out to be 3.02. In the data set with SARS-CoV-2 [9], this compound came in with an IC50 of 55.6 nM.
As for `N=C(N)Nc1ccc(C(=O)Nc2ncnc3[nH]cnc23)cc1`, in “in vitro”, the selectivity ratio came to 1. For the same compound, the IC50 in the data set on SARS-CoV-2 [9] is 22.8 nM.
